Measured values reported in ChEMBL document CHEMBL5647694, “Novel orally bioavailable EZH1/2 dual inhibitors with greater antitumor efficacy than an EZH2 selective inhibitor” (Cancer Sci, 2017).

How the values were obtained:
[1] = molecular target: Inhibitor of nuclear factor kappa-B kinase subunit alpha (Homo sapiens) (UniProt O15111); test: Inhibition of N-terminal GST-fused full length human IKK-alpha (1 to 745 residues) expressed in baculovirus expression system using IkBalpha peptide as substrate at 1 uM in presence of ATP by IMAP assay
[2] = molecular target: Ribosomal protein S6 kinase beta-2 (Homo sapiens) (UniProt Q9UBS0); test: Inhibition of N-terminal GST-fused full length human p70S6Kbeta (1 to 482 residues) expressed in baculovirus expression system using S6K2 peptide as substrate at 1 uM in presence of ATP by Mobility shift assay
[3] = molecular target: Aurora kinase C (Homo sapiens) (UniProt Q9UQB9); test: Inhibition of N-terminal GST-fused full length human AurC (1 to 275 residues) expressed in baculovirus-infected Sf21 cells using Kemptide as substrate at 1 uM in presence of ATP by Mobility shift assay
[4] = molecular target: Ephrin type-A receptor 3 (Homo sapiens) (UniProt P29320); test: Inhibition of N-terminal GST-fused human EPHA3 cytoplasmic domain (579 to 983 residues) expressed in baculovirus-infected Sf21 cells using Blk/Lyntide as substrate at 1 uM in presence of ATP by Mobility shift assay
[5] = molecular target: Serine/threonine-protein kinase BRSK2 (Homo sapiens) (UniProt Q8IWQ3); test: Inhibition of N-terminal GST-tagged full length human BRSK2 (1 to 674 residues) expressed in baculovirus-infected Sf21 cells using CHKtide as substrate at 1 uM in presence of ATP by Mobility shift assay
[6] = molecular target: Tyrosine-protein kinase receptor UFO (Homo sapiens) (UniProt P30530); test: Inhibition of N-terminal GST-fused human AXL cytoplasmic domain (464 to 885 residues) expressed in baculovirus-infected Sf21 cells using CSKtide as substrate at 1 uM in presence of ATP by Mobility shift assay
[7] = molecular target: Tyrosine-protein kinase Srms (Homo sapiens) (UniProt Q9H3Y6); test: Inhibition of N-terminal GST-tagged human SRM catalytic domain (215 to 488 residues) expressed in baculovirus-infected Sf21 cells using Blk/Lyntide as substrate at 1 uM in presence of ATP by Mobility shift assay
[8] = molecular target: Insulin-like growth factor 1 receptor (Homo sapiens) (UniProt P08069); test: Inhibition of N-terminal GST-fused human IGF1R cytoplasmic domain (959 to 1367 residues) expressed in baculovirus-infected Sf21 cells using IRS1 as substrate at 1 uM in presence of ATP by Mobility shift assay
[9] = molecular target: Cytoplasmic tyrosine-protein kinase BMX (Homo sapiens) (UniProt P51813); test: Inhibition of N-terminal GST-fused full length human BMX ( 1 to 675 residues) expressed in baculovirus-infected Sf21 cells using Srctide as substrate at 1 uM in presence of ATP by Mobility shift assay
[10] = molecular target: Tyrosine-protein kinase Fgr (Homo sapiens) (UniProt P09769); test: Inhibition of N-terminal GST-fused full length human FGR (1 to 529 residues) expressed in baculovirus-infected Sf21 cells using Srctide as substrate at 1 uM in presence of ATP by Mobility shift assay
[11] = molecular target: Serine/threonine-protein kinase haspin (Homo sapiens) (UniProt Q8TF76); test: Inhibition of N-terminal GST-fused full length human Haspin (1 to 798 residues) expressed in baculovirus expression system using Histone H3 peptide as substrate at 1 uM in presence of ATP by Mobility shift assay
[12] = molecular target: Serine/threonine-protein kinase SIK1 (Homo sapiens) (UniProt P57059); test: Inhibition of N-terminal GST-fused full length human SIK (1 to 783 residues) expressed in baculovirus expression system using AMARA peptide as substrate at 1 uM in presence of ATP by Mobility shift assay
[13] = molecular target: Receptor-type tyrosine-protein kinase FLT3 (Homo sapiens) (UniProt P36888); test: Inhibition of N-terminal GST-fused human FLT3 cytoplasmic domain (564 to 993 residues) expressed in baculovirus-infected Sf21 cells using Srctide as substrate at 1 uM in presence of ATP by Mobility shift assay
[14] = molecular target: Mitogen-activated protein kinase 9 (Homo sapiens) (UniProt P45984); test: Inhibition of N-terminal GST-fused human JNK2 catalytic domain (1 to 364 residues) expressed in Escherichia coli expression system using Modified ERKtide as substrate at 1 uM in presence of ATP by Mobility shift assay
[15] = molecular target: Tyrosine-protein kinase Lyn (Homo sapiens) (UniProt P07948); test: Inhibition of N-terminal GST-tagged full length human LynB(1 to 491 residues ) expressed in baculovirus-infected Sf21 cells using Srctide as substrate at 1 uM in presence of ATP by Mobility shift assay
[16] = species: Homo sapiens; test: Competitive inhibition of PRC2-EZH2 (unknown origin) assessed as intensity of SAM signal using SAM as substrate at 800 uM by STD-NMR analysis (reference value: 100%); set-up: scale not given: the % may be the effect or the level left
[17] = molecular target: Calcium/calmodulin-dependent protein kinase type II subunit beta (Homo sapiens) (UniProt Q13554); test: Inhibition of N-terminal GST-tagged full length human CAMK2b (1 to 503 residues) expressed in baculovirus-infected Sf21 cells using GS peptide as substrate at 1 uM in presence of ATP by Mobility shift assay
[18] = molecular target: Non-receptor tyrosine-protein kinase TYK2 (Homo sapiens) (UniProt P29597); test: Inhibition of N-terminal GST-tagged human TYK2 catalytic domain (871 to 1187 residues) expressed in baculovirus-infected Sf21 cells using Srctide as substrate at 1 uM in presence of ATP by Mobility shift assay
[19] = molecular target: Tyrosine-protein kinase TXK (Homo sapiens) (UniProt P42681); test: Inhibition of N-terminal GST-tagged human TXK catalytic domain (260 to 527 residues) expressed in baculovirus-infected Sf21 cells using Srctide as substrate at 1 uM in presence of ATP by Mobility shift assay
[20] = molecular target: Mitogen-activated protein kinase 1 (Homo sapiens) (UniProt P28482); test: Inhibition of N-terminal GST-fused full length human ERK2 (1 to 360 residues) expressed in Escherichia coli expression system using Modified Erktide as substrate at 1 uM in presence of ATP by Mobility shift assay
[21] = molecular target: Protein kinase C beta type (Homo sapiens) (UniProt P05771); test: Inhibition of N-terminal GST-fused human full length PKC-beta2 (1 to 673 residues ) expressed in baculovirus expression system using PKC peptide as substrate at 1 uM in presence of ATP by Mobility shift assay
[22] = molecular target: Dual specificity protein kinase CLK2 (Homo sapiens) (UniProt P49760); test: Inhibition of N-terminal GST-fused full length human CLK2 (1 to 499 residues) expressed in baculovirus expression system using DYRKtide-F as substrate at 1 uM in presence of ATP by Mobility shift assay
[23] = molecular target: RAC-gamma serine/threonine-protein kinase (Homo sapiens) (UniProt Q9Y243); test: Inhibition of N-terminal GST-tagged human AKT3 catalytic domain (108 to 479 residues) co-expressed with His-tagged PDK1 (1 to 556 residues) in baculovirus-infected Sf21 cells using Crosstide as substrate at 1 uM in presence of ATP by Mobility shift assay

Chain of Inhibitor of nuclear factor kappa-B kinase subunit alpha (Homo sapiens) (O15111 whole entry, the tested form may be a part): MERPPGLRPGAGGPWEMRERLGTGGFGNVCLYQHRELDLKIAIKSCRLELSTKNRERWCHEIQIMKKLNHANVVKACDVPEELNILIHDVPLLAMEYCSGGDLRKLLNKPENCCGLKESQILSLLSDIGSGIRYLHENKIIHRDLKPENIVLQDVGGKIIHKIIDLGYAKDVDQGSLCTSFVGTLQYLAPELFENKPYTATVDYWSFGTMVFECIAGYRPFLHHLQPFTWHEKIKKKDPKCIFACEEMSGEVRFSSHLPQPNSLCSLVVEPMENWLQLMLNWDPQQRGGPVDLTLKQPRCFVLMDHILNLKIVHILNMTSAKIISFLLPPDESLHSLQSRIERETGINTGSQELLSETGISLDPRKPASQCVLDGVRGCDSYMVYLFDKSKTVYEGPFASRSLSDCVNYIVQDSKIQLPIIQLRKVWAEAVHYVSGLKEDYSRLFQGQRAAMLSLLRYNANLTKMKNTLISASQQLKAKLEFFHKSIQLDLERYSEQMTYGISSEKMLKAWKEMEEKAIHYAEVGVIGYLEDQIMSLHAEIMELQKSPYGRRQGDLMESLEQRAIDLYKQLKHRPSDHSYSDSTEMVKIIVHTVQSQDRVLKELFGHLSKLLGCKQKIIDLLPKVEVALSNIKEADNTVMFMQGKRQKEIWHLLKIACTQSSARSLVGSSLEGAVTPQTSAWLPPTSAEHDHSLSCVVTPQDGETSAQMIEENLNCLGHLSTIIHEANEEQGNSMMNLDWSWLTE
Chain of Mitogen-activated protein kinase 9 (Homo sapiens) (P45984 whole entry, looked up, the tested form may be a part): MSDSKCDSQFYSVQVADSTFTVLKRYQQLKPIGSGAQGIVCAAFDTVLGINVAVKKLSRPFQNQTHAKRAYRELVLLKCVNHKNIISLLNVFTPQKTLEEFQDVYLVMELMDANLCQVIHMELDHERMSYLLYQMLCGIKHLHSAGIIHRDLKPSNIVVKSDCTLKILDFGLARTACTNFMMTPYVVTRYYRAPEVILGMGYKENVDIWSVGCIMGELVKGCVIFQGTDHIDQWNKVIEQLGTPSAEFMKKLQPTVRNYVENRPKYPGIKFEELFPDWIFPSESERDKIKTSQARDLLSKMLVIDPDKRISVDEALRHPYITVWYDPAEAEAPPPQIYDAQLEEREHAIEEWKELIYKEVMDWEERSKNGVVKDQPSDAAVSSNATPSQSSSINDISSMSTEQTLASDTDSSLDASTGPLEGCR
Chain of Serine/threonine-protein kinase SIK1 (Homo sapiens) (P57059 whole entry, the tested form may be a part): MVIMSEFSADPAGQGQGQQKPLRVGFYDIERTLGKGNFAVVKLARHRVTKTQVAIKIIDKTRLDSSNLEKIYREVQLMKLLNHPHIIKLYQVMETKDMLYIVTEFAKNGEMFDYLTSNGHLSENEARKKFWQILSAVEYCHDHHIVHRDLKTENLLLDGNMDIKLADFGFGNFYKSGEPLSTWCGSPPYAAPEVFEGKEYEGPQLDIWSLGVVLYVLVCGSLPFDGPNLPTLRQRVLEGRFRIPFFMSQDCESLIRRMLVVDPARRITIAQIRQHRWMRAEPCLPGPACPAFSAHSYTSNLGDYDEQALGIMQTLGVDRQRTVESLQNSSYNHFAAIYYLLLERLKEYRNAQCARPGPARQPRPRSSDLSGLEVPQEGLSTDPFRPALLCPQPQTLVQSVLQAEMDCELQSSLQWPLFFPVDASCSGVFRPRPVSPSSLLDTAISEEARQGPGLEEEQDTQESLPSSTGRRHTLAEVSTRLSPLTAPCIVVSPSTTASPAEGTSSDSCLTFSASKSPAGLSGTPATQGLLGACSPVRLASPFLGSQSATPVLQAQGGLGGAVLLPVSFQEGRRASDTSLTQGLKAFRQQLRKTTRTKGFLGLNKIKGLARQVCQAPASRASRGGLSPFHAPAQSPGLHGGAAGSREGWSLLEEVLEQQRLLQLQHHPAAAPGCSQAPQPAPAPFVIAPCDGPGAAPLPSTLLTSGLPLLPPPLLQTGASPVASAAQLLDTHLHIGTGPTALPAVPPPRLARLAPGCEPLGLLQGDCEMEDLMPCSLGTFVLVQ
Chain of Tyrosine-protein kinase receptor UFO (Homo sapiens) (P30530 whole entry, the tested form may be a part): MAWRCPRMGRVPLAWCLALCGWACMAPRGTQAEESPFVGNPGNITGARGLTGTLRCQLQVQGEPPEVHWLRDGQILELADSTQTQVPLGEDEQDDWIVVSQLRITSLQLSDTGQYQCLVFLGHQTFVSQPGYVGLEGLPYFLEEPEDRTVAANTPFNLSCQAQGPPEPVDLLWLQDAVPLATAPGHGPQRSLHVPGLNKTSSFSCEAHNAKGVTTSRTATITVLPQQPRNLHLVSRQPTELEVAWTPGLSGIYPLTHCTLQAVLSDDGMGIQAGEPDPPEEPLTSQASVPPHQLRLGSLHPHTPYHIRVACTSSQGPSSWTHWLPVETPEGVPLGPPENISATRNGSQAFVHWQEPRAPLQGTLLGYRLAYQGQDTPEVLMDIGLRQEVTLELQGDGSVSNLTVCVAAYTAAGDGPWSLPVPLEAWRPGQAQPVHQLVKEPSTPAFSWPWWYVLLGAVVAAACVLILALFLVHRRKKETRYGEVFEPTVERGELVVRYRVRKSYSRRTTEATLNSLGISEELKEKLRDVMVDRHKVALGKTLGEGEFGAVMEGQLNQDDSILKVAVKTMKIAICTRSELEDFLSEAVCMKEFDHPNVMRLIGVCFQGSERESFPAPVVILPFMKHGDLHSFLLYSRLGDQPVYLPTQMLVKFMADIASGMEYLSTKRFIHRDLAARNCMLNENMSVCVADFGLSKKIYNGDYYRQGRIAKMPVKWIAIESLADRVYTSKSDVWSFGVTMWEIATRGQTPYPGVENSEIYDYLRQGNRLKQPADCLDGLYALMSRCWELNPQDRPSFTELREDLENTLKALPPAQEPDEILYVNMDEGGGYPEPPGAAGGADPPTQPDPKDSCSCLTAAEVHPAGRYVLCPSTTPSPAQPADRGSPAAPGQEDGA
Chain of Insulin-like growth factor 1 receptor (Homo sapiens) (P08069 31-736 limits assumed): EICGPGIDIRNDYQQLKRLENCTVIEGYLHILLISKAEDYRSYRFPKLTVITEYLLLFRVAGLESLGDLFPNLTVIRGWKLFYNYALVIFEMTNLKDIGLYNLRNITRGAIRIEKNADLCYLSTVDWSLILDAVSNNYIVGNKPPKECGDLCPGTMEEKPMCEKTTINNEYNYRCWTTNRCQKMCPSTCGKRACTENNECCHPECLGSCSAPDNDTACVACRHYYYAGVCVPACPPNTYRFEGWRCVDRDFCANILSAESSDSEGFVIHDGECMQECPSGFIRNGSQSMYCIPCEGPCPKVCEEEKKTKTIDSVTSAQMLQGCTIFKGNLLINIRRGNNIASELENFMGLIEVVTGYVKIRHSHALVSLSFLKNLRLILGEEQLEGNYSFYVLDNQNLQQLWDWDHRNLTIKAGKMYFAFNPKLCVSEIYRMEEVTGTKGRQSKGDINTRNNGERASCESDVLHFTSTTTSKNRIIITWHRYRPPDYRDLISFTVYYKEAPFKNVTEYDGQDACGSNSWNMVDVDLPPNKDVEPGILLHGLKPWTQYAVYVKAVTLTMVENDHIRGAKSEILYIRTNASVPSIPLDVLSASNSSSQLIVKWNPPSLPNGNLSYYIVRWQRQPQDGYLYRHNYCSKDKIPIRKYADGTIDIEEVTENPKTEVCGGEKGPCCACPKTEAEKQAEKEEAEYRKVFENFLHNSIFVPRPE
Chain of Insulin-like growth factor 1 receptor (Homo sapiens) (P08069 741-1367 limits assumed): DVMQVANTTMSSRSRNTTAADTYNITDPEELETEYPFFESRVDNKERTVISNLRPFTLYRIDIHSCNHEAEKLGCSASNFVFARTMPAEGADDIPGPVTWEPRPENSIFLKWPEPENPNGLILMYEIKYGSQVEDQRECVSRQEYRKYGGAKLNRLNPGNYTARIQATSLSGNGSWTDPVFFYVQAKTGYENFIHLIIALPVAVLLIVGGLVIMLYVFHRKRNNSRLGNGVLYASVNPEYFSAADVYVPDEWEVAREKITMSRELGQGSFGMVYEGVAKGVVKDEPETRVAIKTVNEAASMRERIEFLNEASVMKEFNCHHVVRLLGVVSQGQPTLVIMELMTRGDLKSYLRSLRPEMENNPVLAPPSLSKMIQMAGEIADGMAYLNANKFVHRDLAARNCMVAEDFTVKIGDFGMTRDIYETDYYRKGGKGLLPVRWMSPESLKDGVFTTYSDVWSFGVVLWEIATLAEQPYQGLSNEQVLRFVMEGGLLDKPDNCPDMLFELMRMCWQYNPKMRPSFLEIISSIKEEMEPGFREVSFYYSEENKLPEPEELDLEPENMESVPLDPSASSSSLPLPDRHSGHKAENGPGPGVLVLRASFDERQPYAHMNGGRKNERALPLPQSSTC
Chain of Ribosomal protein S6 kinase beta-2 (Homo sapiens) (Q9UBS0 whole entry, the tested form may be a part): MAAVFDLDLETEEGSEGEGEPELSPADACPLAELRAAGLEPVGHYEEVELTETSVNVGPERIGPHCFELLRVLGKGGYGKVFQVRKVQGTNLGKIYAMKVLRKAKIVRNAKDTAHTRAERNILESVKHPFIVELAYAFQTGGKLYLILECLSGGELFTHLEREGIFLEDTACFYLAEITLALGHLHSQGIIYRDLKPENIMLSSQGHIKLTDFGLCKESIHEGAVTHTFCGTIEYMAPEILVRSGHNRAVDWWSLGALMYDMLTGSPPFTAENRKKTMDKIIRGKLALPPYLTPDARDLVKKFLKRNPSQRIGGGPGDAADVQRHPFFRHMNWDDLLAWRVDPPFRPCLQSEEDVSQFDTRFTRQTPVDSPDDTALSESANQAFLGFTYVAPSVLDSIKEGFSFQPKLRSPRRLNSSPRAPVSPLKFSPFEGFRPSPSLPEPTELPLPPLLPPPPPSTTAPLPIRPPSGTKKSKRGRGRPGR
Chain of Aurora kinase C (Homo sapiens) (Q9UQB9 whole entry, the tested form may be a part): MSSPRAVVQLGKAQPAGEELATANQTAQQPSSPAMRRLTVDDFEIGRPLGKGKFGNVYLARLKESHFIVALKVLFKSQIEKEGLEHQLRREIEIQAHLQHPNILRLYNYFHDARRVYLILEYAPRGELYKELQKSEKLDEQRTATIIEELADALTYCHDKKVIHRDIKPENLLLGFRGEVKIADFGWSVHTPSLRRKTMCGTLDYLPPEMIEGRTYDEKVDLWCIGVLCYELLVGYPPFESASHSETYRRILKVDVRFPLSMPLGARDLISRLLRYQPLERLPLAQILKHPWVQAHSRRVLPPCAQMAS

SMILES | inhibition [1] [%] | inhibition [2] [%] | inhibition [3] [%] | inhibition [4] [%] | inhibition [5] [%] | inhibition [6] [%] | inhibition [7] [%] | inhibition [8] [%] | inhibition [9] [%] | inhibition [10] [%] | inhibition [11] [%] | inhibition [12] [%] | inhibition [13] [%] | inhibition [14] [%] | inhibition [15] [%] | Activity [16] [%] | inhibition [17] [%] | inhibition [18] [%] | inhibition [19] [%] | inhibition [20] [%] | also measured
Cc1cc(C)c(CNC(=O)c2cc(Br)c3c(c2C)O[C@@](C)([C@H]2CC[C@H](N(C)C)CC2)O3)c(=O)[nH]1 | -0.6 | 2.1 | -9.2 | -8.6 | 6.6 | -0.5 | -0.1 | -2.9 | -2.2 | -4.6 | 6.5 | -3.1 | -2.6 | -4 | -3.2 | 59 | -0.3 | -2.4 | 1.3 | -6.6 | inhibition [21]: 3.2%; inhibition [22]: -1.6%; inhibition [23]: -6.2%
Cc1cc(C)c(CNC(=O)c2cc(Cl)c3c(c2C)O[C@@](C)([C@H]2CC[C@H](N(C)C)CC2)O3)c(=O)[nH]1 [VALEMETOSTAT] | 11.5 | 5.2 | 21.9 | -4.8 | 11.2 | -3.5 | 0.6 | -4.5 | -3.1 | -6.5 | 12.2 | 6.2 | -1.5 | -5 | -4.3 | 62 | -1.4 | -8.8 | -7 | -8.8 | inhibition [21]: -1.1%; inhibition [22]: 2.5%; inhibition [23]: -5.3%
